In patent publication US20250340552A1, “COMPOUNDS, COMPOSITIONS AND METHODS OF TREATING DISORDERS” (HOTSPOT THERAPEUTICS, INC., priority 2022, published 2025) one finds DC50 and Dmax data, which are given here for 28 molecules.

Each structure is given as a SMILES string. Read-outs that look alike come from different tables or passages of the source. Bounds are passed on as bounds.

In this assay the target is T1, Cbl-B (Homo sapiens, UniProt Q13191).
T1 construct: MSD-Based Assay for Degradation of Cbl-B in THP-1 Cells; endogenous in cells; host or cells: THP-1 (title) / Jurkat (protocol text)
T1 sequence (Q13191 whole entry): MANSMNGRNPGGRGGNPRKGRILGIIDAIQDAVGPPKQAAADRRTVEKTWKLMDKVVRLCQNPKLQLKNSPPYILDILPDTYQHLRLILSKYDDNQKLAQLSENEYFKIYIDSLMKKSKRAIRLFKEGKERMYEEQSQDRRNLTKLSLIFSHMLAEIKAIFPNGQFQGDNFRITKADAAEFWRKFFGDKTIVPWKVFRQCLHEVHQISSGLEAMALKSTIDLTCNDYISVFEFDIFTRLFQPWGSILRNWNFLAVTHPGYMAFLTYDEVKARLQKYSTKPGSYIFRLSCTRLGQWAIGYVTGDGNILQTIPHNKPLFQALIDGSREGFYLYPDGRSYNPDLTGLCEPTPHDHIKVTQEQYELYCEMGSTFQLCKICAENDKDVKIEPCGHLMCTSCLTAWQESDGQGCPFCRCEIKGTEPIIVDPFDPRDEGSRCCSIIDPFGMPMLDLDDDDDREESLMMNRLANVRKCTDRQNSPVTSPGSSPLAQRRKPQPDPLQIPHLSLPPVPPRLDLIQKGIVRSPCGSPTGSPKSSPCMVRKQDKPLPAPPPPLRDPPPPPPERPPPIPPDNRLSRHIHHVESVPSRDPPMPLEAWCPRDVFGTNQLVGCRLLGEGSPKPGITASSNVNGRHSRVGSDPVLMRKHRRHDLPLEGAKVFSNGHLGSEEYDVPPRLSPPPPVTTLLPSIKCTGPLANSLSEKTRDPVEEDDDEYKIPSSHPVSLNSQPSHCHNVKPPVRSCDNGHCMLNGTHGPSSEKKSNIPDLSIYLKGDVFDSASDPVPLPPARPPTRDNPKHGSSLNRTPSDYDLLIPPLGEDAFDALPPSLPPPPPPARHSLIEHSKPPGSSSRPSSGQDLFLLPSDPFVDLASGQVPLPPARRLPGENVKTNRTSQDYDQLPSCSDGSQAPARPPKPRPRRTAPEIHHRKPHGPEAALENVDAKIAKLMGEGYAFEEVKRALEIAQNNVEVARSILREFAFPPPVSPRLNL
Briefly: MSD-based assay for degradation of Cbl-B in THP-1 cells. In kind it is cell-based. The procedure: MSD-Based Assay for Degradation of Cbl-B in THP-1 Cells
Assay plates were then shaken at 600 rpm for 5 minutes, followed by incubation for 24 hours in the 37° C. TC incubator. […] Cell debris was then spun down at maximum speed (about 3200 g) for 30 min and lysates frozen in the −80° C. fridge. Meanwhile, MSD plates (L15XA-3) were coated overnight at 4° C. with 1 ug/mL capture antibody (Anti-Cbl-B antibody, 246C5a and Mouse mAB, ab54362). […] Blocking buffer was 3% Blocker A (MSD, R93BA-4) in TBST. Plates were washed 3× with 150 ul/well of 1×TBST and sample lysates (70 ul/well) then added, followed by shaking for 1 hr at RT, 600 rpm. […] Plates were again washed 3× with 150 ul/well of 1×TBST, followed by addition of Secondary Detection antibody, SULFO-TAG anti-species antibody (Anti Rabbit Antibody (R32AB-5) MSD, R32AB-1) at a final concentration of 1 ug/ml and 25 uL/well, followed by shaking for 1 hr at RT, 600 rpm. Plates were again washed 3× with 150 ul/well of 1×TBST, followed by addition of 1×MSD reading buffer (MSD, R92TC-2), 150 ul/well, diluted from 4× with water.
Compound Dmax were binned into A through D as follows: A indicates >70%, B indicates 50-70%, C indicates 30-50%, D indicates <30%.

The mark [1] stands for this setting: Cbl-B degradation, Jurkat cells seeded (heading: THP-1 cells), 24 hours incubation, MSD readout.
Where [2] appears, read: Cbl-B degradation, Jurkat cells seeded (heading: THP-1 cells), 24 hours incubation, MSD readout, read-out: Dmax.

Take `Cn1cnnc1CC1(c2cccc(-n3cc4c(C(F)(F)F)cc(CN5CCC(OCc6ccc(C(=O)N7CCN(c8ccc9c(c8)CN([C@H]8CCC(=O)NC8=O)C9=O)CC7)cc6)CC5)cn4c3=O)c2)COC1` (single isomer, unassigned) [Compound 244]: the half-maximal degradation concentration (DC50) under setting [1] was less than 0.03 µM. Besides, the Dmax under setting [2] was more than 70%.

Under setting [1], `CO[C@H]1C[C@](c2cccc(-n3cc4c(C(F)(F)F)cc(CN5CCC(OCc6ccc(CN7CCN(c8ccc9c(c8)CN([C@@H]8CCC(=O)NC8=O)C9=O)CC7)cc6)CC5)cn4c3=O)c2)(c2nncn2C)C1` (single isomer, unassigned) [Compound 231] gave a 50% degradation concentration (DC50) of 0.3 to 1 µM. In addition, the Dmax under setting [2] lay within 30 to 50%.

Turning to `Cn1cnnc1[C@@H](c1cccc(-n2cc3c(C(F)(F)F)cc(COCCCN4CCC(CN5CCN(c6ccc7c(c6)CN([C@H]6CCC(=O)NC6=O)C7=O)CC5)CC4)cn3c2=O)c1)C1CCC1` [Compound 150], under setting [1], the DC50 was more than 10 µM. Further, under setting [2], the Dmax was less than 30%.

As to `Cn1cnnc1[C@@H](c1cccc(-n2cc3c(C(F)(F)F)cc(CN4CCC[C@H](OCCc5ccc(CN6CCN(c7ccc8c(c7)CN([C@@H]7CCC(=O)NC7=O)C8=O)CC6)cc5)C4)cn3c2=O)c1)C1CCC1` (single isomer, unassigned) [Compound 127], the 50% degradation concentration (DC50) under setting [1] was more than 10 µM. Further, the Dmax under setting [2] is less than 30%.

On to `Cn1cnnc1CC1(c2cccc(-n3cc4c(C(F)(F)F)cc(CN5CCC[C@H](OCCN6CCC(CN7CCN(c8ccc9c(c8)CN([C@H]8CCC(=O)NC8=O)C9=O)CC7)CC6)C5)cn4c3=O)c2)COC1` (single isomer, unassigned) [Compound 52], for which the DC50 under setting [1] fell in the range of 0.03 to 0.3 µM. In addition, the Dmax under setting [2] was more than 70%.

As to `CN(CCOC1CCN(Cc2cc(C(F)(F)F)c3cn(-c4cccc([C@H](c5nncn5C)C5CCC5)c4)c(=O)n3c2)CC1)C(=O)c1ccc(N2CC3CC(C2)N3c2ccc3c(c2)CN([C@H]2CCC(=O)NC2=O)C3=O)cc1` (single isomer, unassigned) [Compound 90], the DC50 under setting [1] fell in the range of 1 to 10 µM. Further, under setting [2], the Dmax lay within 30 to 50%.

Take `CN(CCN(C)C(=O)c1cc(C(F)(F)F)c2cn(-c3cccc([C@H](c4nncn4C)C4CCC4)c3)c(=O)n2c1)C(=O)c1ccc(N2CCN(c3ccc4c(c3)CN([C@@H]3CCC(=O)NC3=O)C4=O)CC2)cc1` (single isomer, unassigned) [Compound 141]: under setting [1], the DC50 was more than 10 µM. Further, the Dmax under setting [2] is less than 30%.

In turn, `Cn1cnnc1[C@@H](c1cccc(-n2cc3c(C(F)(F)F)cc(CN4CCC(O[C@@H]5CCCN(C(=O)c6ccc(N7CCN(c8ccc9c(c8)CN([C@H]8CCC(=O)NC8=O)C9=O)CC7)cc6)C5)CC4)cn3c2=O)c1)C1CCC1` (single isomer, unassigned) [Compound 226] gave a DC50 under setting [1] of 0.03 to 0.3 µM. Besides, the Dmax under setting [2] was more than 70%.

Take `Cn1cnnc1[C@@H](c1cccc(-n2cc3c(C(F)(F)F)cc(CN4CCC(OCCOCc5ccc(CNc6cccc7c6C(=O)N(C6CCC(=O)NC6=O)C7=O)cc5)CC4)cn3c2=O)c1)C1CCC1` (stereo partly drawn) [Compound 14]: under setting [1], the 50% degradation concentration (DC50) was in the range of 1 to 10 µM. Further, the Dmax under setting [2] was 30 to 50%.

Under setting [1], `Cn1cnnc1[C@@H](c1cccc(-n2cc3c(C(F)(F)F)cc(CN4CCC(OCCOCc5ccc(CN6CCN(c7cc8c(cc7F)C(=O)N(C7CCC(=O)NC7=O)C8=O)CC6)cc5)CC4)cn3c2=O)c1)C1CCC1` (stereo partly drawn) [Compound 23] had a half-maximal degradation concentration (DC50) of more than 10 µM. Moreover, the Dmax under setting [2] was less than 30%.

As to `Cn1cnnc1[C@@H](c1cccc(-n2cc3c(C(F)(F)F)cc(-c4nccn4CCOCCN4CCC(CN5CCN(c6ccc7c(c6)CN([C@@H]6CCC(=O)NC6=O)C7=O)CC5)CC4)cn3c2=O)c1)C1CCC1` [Compound 97], under setting [1], the DC50 lay within 1 to 10 µM. Further, the Dmax under setting [2] was in the range of 30 to 50%.

Under setting [1], `Cn1cnnc1CC1(c2cccc(-n3cc4c(C(F)(F)F)cc(CN5CCN(CCc6ccc(N7CCN(c8ccc9c(c8)CN([C@@H]8CCC(=O)NC8=O)C9=O)CC7)cc6)CC5)cn4c3=O)c2)COC1` [Compound 203] returned a DC50 of less than 0.03 µM. The maximal degradation (Dmax) under setting [2] was more than 70%.

Consider `Cn1cnnc1CC1(c2cccc(-n3cc4c(C(F)(F)F)cc(-c5nccn5CCOCCN5CCC(CN6CCN(c7ccc8c(c7)CN([C@H]7CCC(=O)NC7=O)C8=O)CC6)CC5)cn4c3=O)c2)COC1` (single isomer, unassigned) [Compound 100], for which the DC50 under setting [1] is more than 10 µM. Also, the maximal degradation (Dmax) under setting [2] was less than 30%.

The molecule `Cn1cnnc1[C@@H](c1cccc(-n2cc3c(C(F)(F)F)cc(CN4CCC(O[C@@H]5CCCN(C(=O)c6ccc(N7CCN(c8ccc9c(c8)CN([C@@H]8CCC(=O)NC8=O)C9=O)CC7)cc6)C5)CC4)cn3c2=O)c1)C1CCC1` (single isomer, unassigned) [Compound 225] gave a half-maximal degradation concentration (DC50) under setting [1] of 1 to 10 µM. Moreover, under setting [2], the Dmax was 30 to 50%.

In turn, `Cn1cnnc1[C@@H](c1cccc(-n2cc3c(C(F)(F)F)cc(CN4CCC[C@H](OCCOCc5ccc(COCCNc6cccc7c6C(=O)N(C6CCC(=O)NC6=O)C7=O)cc5)C4)cn3c2=O)c1)C1CCC1` (stereo partly drawn) [Compound 17] showed a DC50 under setting [1] of 0.03 to 0.3 µM. Further, the maximal degradation (Dmax) under setting [2] is 50 to 70%.

Under setting [1], `Cn1cnnc1CC1(c2cccc(-n3cc4c(C(F)(F)F)cc(CN5CCC(CN6CCC(CN7CCN(c8ccc9c(c8)CN(C8CCC(=O)NC8=O)C9=O)CC7)CC6)CC5)cn4c3=O)c2)COC1` (stereo not drawn) [Compound 42] yielded a DC50 of more than 10 µM. In addition, the Dmax (THP-1) was less than 30%.

In the case of `Cn1cnnc1[C@@H](c1cccc(-n2cc3c(C(F)(F)F)cc(CN4CCC(O[C@H]5CCCN(C(=O)c6ccc(N7CCN(c8ccc9c(c8)CN([C@H]8CCC(=O)NC8=O)C9=O)CC7)cc6)C5)CC4)cn3c2=O)c1)C1CCC1` (single isomer, unassigned) [Compound 248], under setting [1], the 50% degradation concentration (DC50) is less than 0.03 µM. Also, the Dmax under setting [2] is more than 70%.

The molecule `Cn1cnnc1[C@@H](c1cccc(-n2cc3c(C(F)(F)F)cc(CN4CCC[C@@H](COCc5ccc(CN6CCN(c7ccc8c(c7)CN([C@H]7CCC(=O)NC7=O)C8=O)CC6)cc5)C4)cn3c2=O)c1)C1CCC1` (single isomer, unassigned) [Compound 234] yielded a Dmax (THP-1) of more than 70%.

`Cn1cnnc1[C@@H](c1cccc(-n2cc3c(C(F)(F)F)cc(CN4CCC[C@@H](OCCc5ccc(CN6CCN(c7ccc8c(c7)CN([C@H]7CCC(=O)NC7=O)C8=O)CC6)cc5)C4)cn3c2=O)c1)C1CCC1` (single isomer, unassigned) [Compound 144] showed a DC50 under setting [1] of less than 0.03 µM. For the same molecule, under setting [2], the greatest degradation seen (Dmax) lay within 50 to 70%.

Turning to `Cn1cnnc1[C@@H](c1cccc(-n2cc3c(C(F)(F)F)cc(CN4CCC[C@@H](OCc5ccc(CN6CCN(c7ccc8c(c7)CN(C7CCC(=O)NC7=O)C8=O)CC6)cc5)C4)cn3c2=O)c1)C1CCC1` (stereo partly drawn) [Compound 95], the DC50 under setting [1] was in the range of 0.03 to 0.3 µM.

On to `Cn1cnnc1CC1(c2cccc(-n3cc4c(C(F)(F)F)cc(CN5CCC(COCc6ccc(CN7CCN(c8ccc9c(c8)CN([C@H]8CCC(=O)NC8=O)C9=O)CC7)cc6)CC5)cn4c3=O)c2)COC1` [Compound 216], for which the DC50 under setting [1] is less than 0.03 µM. The Dmax under setting [2] is more than 70%.

On to `CO[C@H]1C[C@@](c2cccc(-n3cc4c(C(F)(F)F)cc(CN5CCC(OCCN6CCC(CN7CCN(c8ccc9c(c8)CN([C@@H]8CCC(=O)NC8=O)C9=O)CC7)CC6)CC5)cn4c3=O)c2)(c2nncn2C)C1` [Compound 73], for which, under setting [1], the DC50 was in the range of 1 to 10 µM. Further, the Dmax under setting [2] lay within 30 to 50%.

Take `CO[C@H]1C[C@](c2cccc(-n3cc4c(C(F)(F)F)cc(CN5CCC(OCCOCc6ccc(CN7CCN(c8ccc9c(c8)CN([C@H]8CCC(=O)NC8=O)C9=O)CC7)cc6)CC5)cn4c3=O)c2)(c2nncn2C)C1` [Compound 222]: the DC50 under setting [1] is less than 0.03 µM. For the same molecule, under setting [2], the Dmax was more than 70%.

As to `Cn1cnnc1[C@@H](c1cccc(-n2cc3c(C(F)(F)F)cc(CN4CCC(OCCN5CCN(CC6CCN(c7ccc8c(c7)CN([C@H]7CCC(=O)NC7=O)C8=O)CC6)CC5)CC4)cn3c2=O)c1)C1CCC1` (single isomer, unassigned) [Compound 80], the DC50 under setting [1] is less than 0.03 µM. The Dmax under setting [2] was in the range of 50 to 70%.

On to `Cn1cnnc1CC1(c2cccc(-n3cc4c(C(F)(F)F)cc(CN5CCC[C@H](OCCN6CCC(CN7CCN(c8ccc9c(c8)CN([C@@H]8CCC(=O)NC8=O)C9=O)CC7)CC6)C5)cn4c3=O)c2)COC1` (single isomer, unassigned) [Compound 51], for which, under setting [1], the 50% degradation concentration (DC50) was in the range of 0.3 to 1 µM. The Dmax under setting [2] was in the range of 50 to 70%.

As for `Cn1cnnc1CC1(c2cccc(-n3cc4c(C(F)(F)F)cc(CN5CCC[C@H](OCc6ccc(CN7CCN(c8ccc9c(c8)CN([C@H]8CCC(=O)NC8=O)C9=O)CC7)cc6)C5)cn4c3=O)c2)COC1` (single isomer, unassigned) [Compound 84], the half-maximal degradation concentration (DC50) under setting [1] lay in the range of 0.03 to 0.3 µM. Besides, the greatest degradation seen (Dmax) under setting [2] lay within 30 to 50%.

For `Cn1cnnc1[C@@H](c1cccc(-n2cc3c(C(F)(F)F)cc(CN4CCC[C@@H](OCCN5CCC(CN6CCN(c7ccc8c(c7)CN([C@@H]7CCC(=O)NC7=O)C8=O)CC6)CC5)C4)cn3c2=O)c1)C1CCC1` (single isomer, unassigned) [Compound 53], the DC50 under setting [1] was 1 to 10 µM. In addition, the maximal degradation (Dmax) (THP-1) fell in the range of 50 to 70%.

Under setting [1], `CN(CCN(C)C(=O)c1cc(C(F)(F)F)c2cn(-c3cccc([C@H](c4nncn4C)C4CCC4)c3)c(=O)n2c1)C(=O)c1ccc(C2CCN(c3ccc4c(c3)CN([C@H]3CCC(=O)NC3=O)C4=O)CC2)cc1` (single isomer, unassigned) [Compound 198] showed a 50% degradation concentration (DC50) of more than 10 µM. Moreover, the Dmax under setting [2] is less than 30%.
